Data from publication PMC9719519, “Non-classical ferroptosis inhibition by a small molecule targeting PHB2” (Nature Communications, 2022).

Key:
Experiment in all cases: biochemical
Design in all cases: Eurofins recombinant human kinase profiling, remaining kinase activity as % of control, 10 uM ATP
Conditions in all cases: ATP 10 uM; read-out: %Ctrl@10 μM
[1] = molecular target: NEK1(h) (Homo sapiens, UniProt Q96PY6)
In short: (§1)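 Recombinant human kinases, 401 in total, screened using an outsourced kinase profiling assay.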

[2] = molecular target: T1, MLK3(h) (Homo sapiens, UniProt Q16584)
T1 construct: gene MAP3K11
In short: as §1

[3] = molecular target: CDK13/cyclinK(h) (Homo sapiens, UniProt Q14004)
In short: as §1

[4] = molecular target: T2, LKB1(h) (Homo sapiens, UniProt Q15831)
T2 construct: gene STK11
T2 sequence (Q15831 whole entry): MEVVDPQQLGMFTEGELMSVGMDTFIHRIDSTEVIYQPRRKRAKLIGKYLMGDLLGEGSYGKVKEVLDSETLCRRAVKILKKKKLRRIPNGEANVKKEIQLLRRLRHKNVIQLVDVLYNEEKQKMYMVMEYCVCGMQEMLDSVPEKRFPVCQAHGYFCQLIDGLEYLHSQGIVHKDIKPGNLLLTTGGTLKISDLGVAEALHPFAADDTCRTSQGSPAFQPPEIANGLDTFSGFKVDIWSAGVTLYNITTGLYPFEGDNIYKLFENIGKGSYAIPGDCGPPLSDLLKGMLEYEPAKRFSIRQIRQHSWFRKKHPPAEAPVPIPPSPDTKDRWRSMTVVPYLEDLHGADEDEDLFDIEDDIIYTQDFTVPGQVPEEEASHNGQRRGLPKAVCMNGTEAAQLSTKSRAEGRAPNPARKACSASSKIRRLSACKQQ
T2 sequence (Q7RTN6 whole entry partner): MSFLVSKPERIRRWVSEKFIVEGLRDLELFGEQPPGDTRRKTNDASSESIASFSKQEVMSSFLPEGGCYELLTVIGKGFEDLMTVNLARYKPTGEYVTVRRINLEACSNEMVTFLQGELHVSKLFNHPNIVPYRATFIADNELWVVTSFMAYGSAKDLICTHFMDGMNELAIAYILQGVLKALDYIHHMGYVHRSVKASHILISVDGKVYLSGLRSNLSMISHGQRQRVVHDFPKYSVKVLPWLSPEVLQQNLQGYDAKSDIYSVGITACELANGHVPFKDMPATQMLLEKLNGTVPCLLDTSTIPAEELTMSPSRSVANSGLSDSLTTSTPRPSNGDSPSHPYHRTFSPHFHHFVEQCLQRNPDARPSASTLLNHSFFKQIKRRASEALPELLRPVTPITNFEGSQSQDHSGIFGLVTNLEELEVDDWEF
T2 sequence (Q9Y376 whole entry partner): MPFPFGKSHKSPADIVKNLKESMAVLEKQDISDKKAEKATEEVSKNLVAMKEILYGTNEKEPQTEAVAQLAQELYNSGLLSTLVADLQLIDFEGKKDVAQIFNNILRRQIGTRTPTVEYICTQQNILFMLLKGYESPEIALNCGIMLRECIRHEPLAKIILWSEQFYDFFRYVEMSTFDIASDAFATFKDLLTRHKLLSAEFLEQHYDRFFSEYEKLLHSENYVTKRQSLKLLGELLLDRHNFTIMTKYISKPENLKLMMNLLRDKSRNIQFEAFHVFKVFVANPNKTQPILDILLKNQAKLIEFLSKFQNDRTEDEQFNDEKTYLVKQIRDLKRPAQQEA
In short: as §1

[5] = molecular target: T3, IKKβ(h) (Homo sapiens, UniProt O14920)
T3 construct: gene IKBKB
In short: as §1

[6] = molecular target: TSSK2(h) (Homo sapiens, UniProt Q96PF2)
In short: as §1

[7] = molecular target: ULK3(h) (Homo sapiens, UniProt Q6PHR2)
In short: as §1

[8] = molecular target: EphB1(h) (Homo sapiens, UniProt P54762)
In short: as §1

[9] = molecular target: ErbB2(h) (Homo sapiens, UniProt P04626)
In short: as §1

[10] = molecular target: T4, A-Raf(h) (Homo sapiens, UniProt P10398)
T4 construct: gene ARAF
In short: as §1

[11] = molecular target: T5, CK1γ2(h) (Homo sapiens, UniProt P78368)
T5 construct: gene CSNK1G2
In short: as §1

[12] = molecular target: T6, PKD3(h) (Homo sapiens, UniProt O94806)
T6 construct: gene PRKD3
In short: as §1

[13] = molecular target: T7, ALK4(h) (Homo sapiens, UniProt P36896)
T7 construct: gene ACVR1B
In short: as §1

[14] = molecular target: T8, DNA-PK(h) (Homo sapiens, UniProt P78527)
T8 construct: gene PRKDC
In short: as §1

[15] = molecular target: GRK1(h) (Homo sapiens, UniProt Q15835)
GRK1(h), sequence (Q15835 whole entry): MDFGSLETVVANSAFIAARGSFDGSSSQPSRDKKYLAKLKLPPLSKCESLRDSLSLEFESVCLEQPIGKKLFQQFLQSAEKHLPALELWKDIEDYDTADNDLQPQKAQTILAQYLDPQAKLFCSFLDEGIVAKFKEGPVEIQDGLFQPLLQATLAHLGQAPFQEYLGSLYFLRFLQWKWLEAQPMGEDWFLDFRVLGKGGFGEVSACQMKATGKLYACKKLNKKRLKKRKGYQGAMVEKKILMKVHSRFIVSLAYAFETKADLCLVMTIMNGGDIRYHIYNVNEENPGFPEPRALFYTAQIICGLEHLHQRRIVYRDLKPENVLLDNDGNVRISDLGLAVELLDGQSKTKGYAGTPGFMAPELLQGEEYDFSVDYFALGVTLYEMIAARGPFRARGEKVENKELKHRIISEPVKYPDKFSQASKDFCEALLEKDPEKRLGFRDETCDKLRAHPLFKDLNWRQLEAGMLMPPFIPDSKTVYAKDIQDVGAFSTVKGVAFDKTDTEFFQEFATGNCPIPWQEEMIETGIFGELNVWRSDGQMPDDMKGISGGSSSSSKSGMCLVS
In short: as §1

[16] = molecular target: WNK1(h) (Homo sapiens, UniProt Q9H4A3)
In short: as §1

[17] = molecular target: Txk(h) (Homo sapiens, UniProt P42681)
Txk(h), sequence (P42681 whole entry): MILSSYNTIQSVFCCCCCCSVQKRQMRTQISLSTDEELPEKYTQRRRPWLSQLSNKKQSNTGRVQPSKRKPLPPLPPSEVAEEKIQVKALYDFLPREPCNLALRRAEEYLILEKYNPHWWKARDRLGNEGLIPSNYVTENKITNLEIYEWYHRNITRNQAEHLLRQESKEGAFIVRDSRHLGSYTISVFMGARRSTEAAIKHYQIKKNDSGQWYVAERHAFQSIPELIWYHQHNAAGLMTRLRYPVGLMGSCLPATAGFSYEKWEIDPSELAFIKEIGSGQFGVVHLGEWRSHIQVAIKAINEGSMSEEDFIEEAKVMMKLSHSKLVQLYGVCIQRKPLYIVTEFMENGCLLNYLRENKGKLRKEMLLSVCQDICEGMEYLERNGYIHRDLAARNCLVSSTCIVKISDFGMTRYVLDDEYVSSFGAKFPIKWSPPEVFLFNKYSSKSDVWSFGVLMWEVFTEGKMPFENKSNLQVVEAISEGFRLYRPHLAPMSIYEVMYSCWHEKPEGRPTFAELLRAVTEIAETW
In short: as §1

[18] = molecular target: T9, CaMKIV(h) (Homo sapiens, UniProt Q16566)
T9 construct: gene CAMK4
T9 sequence (Q16566 whole entry): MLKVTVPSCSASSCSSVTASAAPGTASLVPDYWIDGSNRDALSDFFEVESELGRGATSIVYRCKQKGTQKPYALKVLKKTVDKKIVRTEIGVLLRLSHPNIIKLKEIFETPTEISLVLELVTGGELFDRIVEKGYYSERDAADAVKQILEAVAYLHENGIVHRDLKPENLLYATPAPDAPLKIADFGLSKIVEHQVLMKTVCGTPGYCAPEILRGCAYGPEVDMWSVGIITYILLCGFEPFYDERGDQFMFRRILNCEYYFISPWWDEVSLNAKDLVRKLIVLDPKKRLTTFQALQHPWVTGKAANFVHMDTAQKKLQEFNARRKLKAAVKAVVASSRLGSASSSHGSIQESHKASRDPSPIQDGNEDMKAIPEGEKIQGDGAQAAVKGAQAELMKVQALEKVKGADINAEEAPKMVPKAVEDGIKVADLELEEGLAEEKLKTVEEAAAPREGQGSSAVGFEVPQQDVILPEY
In short: as §1

[19] = molecular target: T10, Yes(h) (Homo sapiens, UniProt P07947)
T10 construct: gene YES1
In short: as §1

[20] = molecular target: T11, IRE1(h) (Homo sapiens, UniProt O75460)
T11 construct: gene ERN1
In short: as §1

[21] = molecular target: Flt4(h) (Homo sapiens, UniProt P35916)
Flt4(h), sequence (P35916 whole entry): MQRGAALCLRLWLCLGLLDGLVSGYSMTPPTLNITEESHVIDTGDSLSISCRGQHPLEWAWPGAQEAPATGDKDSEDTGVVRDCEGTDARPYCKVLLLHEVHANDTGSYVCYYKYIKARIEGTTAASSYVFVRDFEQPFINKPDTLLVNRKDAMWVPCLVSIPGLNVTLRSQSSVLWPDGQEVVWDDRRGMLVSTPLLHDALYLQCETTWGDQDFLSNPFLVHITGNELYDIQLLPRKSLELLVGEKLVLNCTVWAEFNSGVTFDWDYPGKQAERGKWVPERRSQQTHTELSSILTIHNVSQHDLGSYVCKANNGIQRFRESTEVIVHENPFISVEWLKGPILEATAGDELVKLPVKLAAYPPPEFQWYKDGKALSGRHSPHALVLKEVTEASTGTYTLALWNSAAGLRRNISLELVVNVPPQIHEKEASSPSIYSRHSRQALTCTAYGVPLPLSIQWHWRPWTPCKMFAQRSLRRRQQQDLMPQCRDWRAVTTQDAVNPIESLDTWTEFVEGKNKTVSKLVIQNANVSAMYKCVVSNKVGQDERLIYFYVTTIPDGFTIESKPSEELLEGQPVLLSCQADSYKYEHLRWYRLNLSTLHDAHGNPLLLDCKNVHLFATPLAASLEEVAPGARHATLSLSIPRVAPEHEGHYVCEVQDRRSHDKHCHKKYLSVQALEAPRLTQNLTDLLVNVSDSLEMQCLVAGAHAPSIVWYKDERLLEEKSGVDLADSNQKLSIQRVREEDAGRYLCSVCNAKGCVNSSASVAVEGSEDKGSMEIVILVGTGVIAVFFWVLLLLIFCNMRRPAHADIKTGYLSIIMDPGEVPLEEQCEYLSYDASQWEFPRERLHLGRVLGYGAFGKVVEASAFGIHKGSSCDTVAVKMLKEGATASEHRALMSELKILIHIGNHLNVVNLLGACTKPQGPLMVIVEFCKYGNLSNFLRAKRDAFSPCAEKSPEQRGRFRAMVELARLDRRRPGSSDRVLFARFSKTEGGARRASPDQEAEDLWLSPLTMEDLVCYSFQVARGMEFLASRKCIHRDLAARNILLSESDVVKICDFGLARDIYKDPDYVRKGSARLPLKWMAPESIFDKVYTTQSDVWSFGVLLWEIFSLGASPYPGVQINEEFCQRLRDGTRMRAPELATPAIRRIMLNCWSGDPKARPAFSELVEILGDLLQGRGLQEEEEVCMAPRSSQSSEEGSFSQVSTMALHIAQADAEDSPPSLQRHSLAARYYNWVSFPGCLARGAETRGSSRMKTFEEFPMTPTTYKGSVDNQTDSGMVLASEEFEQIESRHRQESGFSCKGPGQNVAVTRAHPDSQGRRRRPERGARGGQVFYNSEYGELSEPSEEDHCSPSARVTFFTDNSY
In short: as §1

[22] = molecular target: CDKL2(h) (Homo sapiens, UniProt Q92772)
In short: as §1

[23] = molecular target: LTK(h) (Homo sapiens, UniProt P29376)
LTK(h), sequence (P29376 whole entry): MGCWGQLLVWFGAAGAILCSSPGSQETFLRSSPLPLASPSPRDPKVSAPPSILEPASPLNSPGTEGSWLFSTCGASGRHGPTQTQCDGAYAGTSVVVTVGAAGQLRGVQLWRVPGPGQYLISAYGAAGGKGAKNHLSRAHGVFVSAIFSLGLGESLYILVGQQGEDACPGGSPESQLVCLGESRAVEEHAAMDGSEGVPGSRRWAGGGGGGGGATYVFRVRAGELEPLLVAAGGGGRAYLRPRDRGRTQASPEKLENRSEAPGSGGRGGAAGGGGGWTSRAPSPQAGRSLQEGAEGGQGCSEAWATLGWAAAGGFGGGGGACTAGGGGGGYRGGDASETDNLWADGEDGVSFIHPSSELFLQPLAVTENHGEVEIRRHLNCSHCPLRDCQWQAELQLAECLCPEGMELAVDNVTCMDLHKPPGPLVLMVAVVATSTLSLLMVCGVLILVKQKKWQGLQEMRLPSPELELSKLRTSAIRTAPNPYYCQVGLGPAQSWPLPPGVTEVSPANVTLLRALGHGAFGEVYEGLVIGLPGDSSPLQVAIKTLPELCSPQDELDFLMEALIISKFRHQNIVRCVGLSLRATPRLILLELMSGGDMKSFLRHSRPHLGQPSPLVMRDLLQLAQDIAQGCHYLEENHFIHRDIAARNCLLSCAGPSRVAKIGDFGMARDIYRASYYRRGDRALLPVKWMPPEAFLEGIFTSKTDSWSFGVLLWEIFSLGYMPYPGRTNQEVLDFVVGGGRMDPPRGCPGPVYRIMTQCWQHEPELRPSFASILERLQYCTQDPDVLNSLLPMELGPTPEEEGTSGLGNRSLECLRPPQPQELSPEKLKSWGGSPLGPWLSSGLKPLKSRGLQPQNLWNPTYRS
In short: as §1

SMILES: C1=C(c2nc(-c3cnn(C4CCNCC4)c3)cn3cc(-c4ccccc4)nc23)CCOC1 [YL-939]
- remaining activity at 10 µM [1]: 105%
- remaining activity at 10 µM [2]: 111%
- remaining activity at 10 µM [3]: 93%
- remaining activity at 10 µM [4]: 87%
- remaining activity at 10 µM [5]: 87%
- remaining activity at 10 µM [6]: 83%
- remaining activity at 10 µM [7]: 68%
- remaining activity at 10 µM [8]: 99%
- remaining activity at 10 µM [9]: 72%
- remaining activity at 10 µM [10]: 83%
- remaining activity at 10 µM [11]: 90%
- remaining activity at 10 µM [12]: 87%
- remaining activity at 10 µM [13]: 117%
- remaining activity at 10 µM [14]: 94%
- remaining activity at 10 µM [15]: 109%
- remaining activity at 10 µM [16]: 85%
- remaining activity at 10 µM [17]: 73%
- remaining activity at 10 µM [18]: 77%
- remaining activity at 10 µM [19]: 90%
- remaining activity at 10 µM [20]: 94%
- remaining activity at 10 µM [21]: 85%
- remaining activity at 10 µM [22]: 74%
- remaining activity at 10 µM [23]: 108%
